# Values of other authors as cited in patent US20070122350A1, “Safe and effective methods of administering therapeutic agents” (Transave, Inc., priority 2005, published 2007).
# Conditions: OSHA
smiles,measurement,setting,value
"N.N.[Cl][Pt][Cl] [cisplatin, Cis-diamminedichloroplatinum(II)]",legal airborne permissible exposure limit (PEL),averaged over an eight-hour work shift,2·10^−3 mg/m^3
same,"legal airborne permissible exposure limit (PEL), equivalent",per liter of air during 480 consecutive minutes,2 ng/L
